Laboratory results: patent US11807835B2, “Detergent compositions containing a stabilized enzyme by phosphonates” (ECOLAB USA INC., priority 2016, dated 2023)

Legend:
amylase = assay: Amylase activity retention in detergent use solution (4000 ppm, 5 GPG water; ethylidene substrate EPS, HEPES buffer pH 8.0); assay type: biochemical
Protocol: (§1) The enzyme activities in the detergents with different phosphonate levels were tested at 4000 ppm in 5 grains per gallon (GPG) water at 120° F. with various time points collected up to 4 hours, after a use solution was generated from the detergent composition. During the tests, the samples at different time points were collected and immediately frozen in an acetone/dry ice bath and stored in −80° C. before the activity of the enzyme was evaluated. For the use of such an assay, t=0 min was the reference point for 100% enzyme activity.
(§2) Assays of enzyme activity in formulations (% retention) were conducted to simulate a presoak condition in a beaker using the chemistry, temperature, and pH conditions relevant to manual warewash or presoak applications. Enzyme activity is an indicator of the stability of the enzyme in the detergent, specifically in an aqueous use solution within a sump (which is under conditions of high pH, temperature and dilution).
Enzyme activity under presoak or manual warewash conditions was traced quantitatively using a standard protease assay. Samples were prepared under bench top conditions, whereby the use solution from a detergent composition or detergent was obtained and maintained at a presoak or manual warewash temperature in a stirring water bath. After the time course for assessing enzyme stability is initiated, aliquots were taken at various time points and flash-frozen. A time=0 sample was prepared for each series by dissolving the detergent formulation at room temperature, mixing thoroughly, and flash freezing. Samples were thawed and diluted as necessary in an assay buffer usually for use in the protease assay. A glycine buffer at pH 9.0 is used here. The assay monitored the direct reaction of the protease on a small, commercially available peptidyl substrate, with liberation of the product providing correlation to the active enzyme content. The product was detected using a plate reader with an appreciable dynamic range (upper absorbance limit of the instrument >3.5). Enzyme activity levels were assessed relative to a calibration curve with average values for replicate tests used to map protease stability under presoak or manual warewash use conditions. Enzyme retention at each time point was calculated as the % enzyme activity relative to the time=0 sample.
The analysis by lipase and amylase assay was conducted similarly, except with a different substrate and buffers. For lipase activity, the substrate is p-nitrophenyl valerate, and for amylase, the substrate is an ethylidene substrate (EPS). The buffer used in lipase assay is TRIS (Tris(hydroxymethyl)aminomethane) buffer at pH 8.0, and in amylase assay HEPES (4-(2-hydroxyethyl)-1-piperazineethanesulfonic acid) buffer at pH 8.0.

[1] = tested on: enzyme (protease, amylase, lipase); assay: Overall effects of phosphonates on enzyme activity (Table 3); assay type: biochemical; details: overall effect of the phosphonate on enzyme activity in the detergent use solution
Protocol: as §1, §2
The relative enzyme activities in a use solution of the tested detergent compositions containing a different phosphonate at different concentrations over a period time are listed in Table 4A-Table 4E, Table 5A-Table 5E, and Table 6A-Table 6F.

[2] = base formula, phosphonate 0.3 wt-%, use solution at 120° F., time 0 min
[3] = base formula, phosphonate 0.3 wt-%, use solution at 120° F., time 5 min
[4] = base formula, phosphonate 0.3 wt-%, use solution at 120° F., time 10 min
[5] = base formula, phosphonate 0.3 wt-%, use solution at 120° F., time 20 min
[6] = base formula, phosphonate 0.3 wt-%, use solution at 120° F., time 40 min
[7] = base formula, phosphonate 0.3 wt-%, use solution at 120° F., time 60 min
[8] = base formula, phosphonate 0.3 wt-%, use solution at 120° F., time 90 min
[9] = base formula, phosphonate 0.3 wt-%, use solution at 120° F., time 120 min
[10] = base formula, phosphonate 0.3 wt-%, use solution at 120° F., time 150 min
[11] = base formula, phosphonate 0.3 wt-%, use solution at 120° F., time 180 min
[12] = base formula, phosphonate 0.3 wt-%, use solution at 120° F., time 210 min
[13] = base formula, phosphonate 0.3 wt-%, use solution at 120° F., time 240 min
[14] = base formula, phosphonate 0.6 wt-%, use solution at 120º F., time 0 min
[15] = base formula, phosphonate 0.6 wt-%, use solution at 120º F., time 5 min
[16] = base formula, phosphonate 0.6 wt-%, use solution at 120º F., time 10 min
[17] = base formula, phosphonate 0.6 wt-%, use solution at 120º F., time 20 min
[18] = base formula, phosphonate 0.6 wt-%, use solution at 120º F., time 40 min
[19] = base formula, phosphonate 0.6 wt-%, use solution at 120º F., time 60 min
[20] = base formula, phosphonate 0.6 wt-%, use solution at 120º F., time 90 min
[21] = base formula, phosphonate 0.6 wt-%, use solution at 120º F., time 120 min
[22] = base formula, phosphonate 0.6 wt-%, use solution at 120º F., time 150 min
[23] = base formula, phosphonate 0.6 wt-%, use solution at 120º F., time 180 min
[24] = base formula, phosphonate 0.6 wt-%, use solution at 120º F., time 210 min
[25] = base formula, phosphonate 0.6 wt-%, use solution at 120º F., time 240 min
[26] = base formula, phosphonate at 0.1% elemental phosphorus level, use solution at 120º F., time 0 min
[27] = base formula, phosphonate at 0.1% elemental phosphorus level, use solution at 120º F., time 5 min
[28] = base formula, phosphonate at 0.1% elemental phosphorus level, use solution at 120º F., time 10 min
[29] = base formula, phosphonate at 0.1% elemental phosphorus level, use solution at 120º F., time 20 min
[30] = base formula, phosphonate at 0.1% elemental phosphorus level, use solution at 120º F., time 40 min
[31] = base formula, phosphonate at 0.1% elemental phosphorus level, use solution at 120º F., time 60 min
[32] = base formula, phosphonate at 0.1% elemental phosphorus level, use solution at 120º F., time 90 min
[33] = base formula, phosphonate at 0.1% elemental phosphorus level, use solution at 120º F., time 120 min
[34] = base formula, phosphonate at 0.1% elemental phosphorus level, use solution at 120º F., time 150 min
[35] = base formula, phosphonate at 0.1% elemental phosphorus level, use solution at 120º F., time 180 min
[36] = base formula, phosphonate at 0.1% elemental phosphorus level, use solution at 120º F., time 210 min
[37] = base formula, phosphonate at 0.1% elemental phosphorus level, use solution at 120º F., time 240 min

## NCP(=O)(O)O [AMPA, Aminomethyl phosphonic acid]
amylase; [2]
  Relative Amylase Enzyme Activity: 82.13%
amylase; [3]
  Relative Amylase Enzyme Activity: 100.00%
amylase; [4]
  Relative Amylase Enzyme Activity: 95.55%
amylase; [5]
  Relative Amylase Enzyme Activity: 101.29%
amylase; [6]
  Relative Amylase Enzyme Activity: 80.17%
amylase; [7]
  Relative Amylase Enzyme Activity: 80.10%
amylase; [8]
  Relative Amylase Enzyme Activity: 87.43%
amylase; [9]
  Relative Amylase Enzyme Activity: 92.65%
amylase; [10]
  Relative Amylase Enzyme Activity: 93.49%
amylase; [11]
  Relative Amylase Enzyme Activity: 102.37%
amylase; [12]
  Relative Amylase Enzyme Activity: 103.78%
amylase; [13]
  Relative Amylase Enzyme Activity: 102.93%
amylase; [14]
  Relative Amylase Enzyme Activity: 100.00%
amylase; [15]
  Relative Amylase Enzyme Activity: 91.80%
amylase; [16]
  Relative Amylase Enzyme Activity: 92.54%
amylase; [17]
  Relative Amylase Enzyme Activity: 85.05%
amylase; [18]
  Relative Amylase Enzyme Activity: 94.06%
amylase; [19]
  Relative Amylase Enzyme Activity: 86.14%
amylase; [20]
  Relative Amylase Enzyme Activity: 90.32%
amylase; [21]
  Relative Amylase Enzyme Activity: 93.67%
amylase; [22]
  Relative Amylase Enzyme Activity: 92.05%
amylase; [23]
  Relative Amylase Enzyme Activity: 81.43%
amylase; [24]
  Relative Amylase Enzyme Activity: 94.06%
amylase; [25]
  Relative Amylase Enzyme Activity: 81.87%
amylase; [26]
  Relative Amylase Enzyme Activity: 97.43%
amylase; [27]
  Relative Amylase Enzyme Activity: 100.00%
amylase; [28]
  Relative Amylase Enzyme Activity: 102.34%
amylase; [29]
  Relative Amylase Enzyme Activity: 105.43%
amylase; [30]
  Relative Amylase Enzyme Activity: 92.18%
amylase; [31]
  Relative Amylase Enzyme Activity: 92.23%
amylase; [32]
  Relative Amylase Enzyme Activity: 96.88%
amylase; [33]
  Relative Amylase Enzyme Activity: 92.96%
amylase; [34]
  Relative Amylase Enzyme Activity: 103.38%
amylase; [35]
  Relative Amylase Enzyme Activity: 102.05%
amylase; [36]
  Relative Amylase Enzyme Activity: 91.32%
amylase; [37]
  Relative Amylase Enzyme Activity: 99.25%
[1]
  Stability (effects on enzyme activity): Yes

## O=P(O)(O)CN(CP(=O)(O)O)CP(=O)(O)O [ATMP, Aminotri (methylene phosphonic acid)]
amylase; All Ash formula, phosphonate 0.3 wt-%, use solution at 120° F., time 0 min
  Relative Amylase Enzyme Activity: 98.49%
amylase; All Ash formula, phosphonate 0.3 wt-%, use solution at 120° F., time 5 min
  Relative Amylase Enzyme Activity: 100.00%
amylase; All Ash formula, phosphonate 0.3 wt-%, use solution at 120° F., time 10 min
  Relative Amylase Enzyme Activity: 98.40%
amylase; All Ash formula, phosphonate 0.3 wt-%, use solution at 120° F., time 20 min
  Relative Amylase Enzyme Activity: 97.90%
amylase; All Ash formula, phosphonate 0.3 wt-%, use solution at 120° F., time 40 min
  Relative Amylase Enzyme Activity: 91.03%
amylase; All Ash formula, phosphonate 0.3 wt-%, use solution at 120° F., time 60 min
  Relative Amylase Enzyme Activity: 86.91%
amylase; All Ash formula, phosphonate 0.3 wt-%, use solution at 120° F., time 90 min
  Relative Amylase Enzyme Activity: 87.68%
amylase; All Ash formula, phosphonate 0.3 wt-%, use solution at 120° F., time 120 min
  Relative Amylase Enzyme Activity: 80.93%
amylase; All Ash formula, phosphonate 0.3 wt-%, use solution at 120° F., time 150 min
  Relative Amylase Enzyme Activity: 83.80%
amylase; All Ash formula, phosphonate 0.3 wt-%, use solution at 120° F., time 180 min
  Relative Amylase Enzyme Activity: 80.91%
amylase; All Ash formula, phosphonate 0.3 wt-%, use solution at 120° F., time 210 min
  Relative Amylase Enzyme Activity: 84.34%
amylase; All Ash formula, phosphonate 0.3 wt-%, use solution at 120° F., time 240 min
  Relative Amylase Enzyme Activity: 83.21%
amylase; all ash formula, versus same composition with PBTC or HEDP without amine(s), FIG. 4D
  amylase stability in all ash formula: more stable
amylase; [2]
  Relative Amylase Enzyme Activity: 100.00%
amylase; [3]
  Relative Amylase Enzyme Activity: 89.47%
amylase; [4]
  Relative Amylase Enzyme Activity: 82.94%
amylase; [5]
  Relative Amylase Enzyme Activity: 79.67%
amylase; [6]
  Relative Amylase Enzyme Activity: 90.79%
amylase; [7]
  Relative Amylase Enzyme Activity: 89.94%
amylase; [8]
  Relative Amylase Enzyme Activity: 94.47%
amylase; [9]
  Relative Amylase Enzyme Activity: 95.08%
amylase; [10]
  Relative Amylase Enzyme Activity: 94.00%
amylase; [11]
  Relative Amylase Enzyme Activity: 90.87%
amylase; [12]
  Relative Amylase Enzyme Activity: 94.61%
amylase; [13]
  Relative Amylase Enzyme Activity: 96.54%
amylase; [14]
  Relative Amylase Enzyme Activity: 100.00%
amylase; [15]
  Relative Amylase Enzyme Activity: 87.10%
amylase; [16]
  Relative Amylase Enzyme Activity: 92.19%
amylase; [17]
  Relative Amylase Enzyme Activity: 80.12%
amylase; [18]
  Relative Amylase Enzyme Activity: 77.64%
amylase; [19]
  Relative Amylase Enzyme Activity: 91.13%
amylase; [20]
  Relative Amylase Enzyme Activity: 92.19%
amylase; [21]
  Relative Amylase Enzyme Activity: 93.02%
amylase; [22]
  Relative Amylase Enzyme Activity: 101.54%
amylase; [23]
  Relative Amylase Enzyme Activity: 80.83%
amylase; [24]
  Relative Amylase Enzyme Activity: 92.78%
amylase; [25]
  Relative Amylase Enzyme Activity: 86.75%
amylase; [26]
  Relative Amylase Enzyme Activity: 82.19%
amylase; [27]
  Relative Amylase Enzyme Activity: 100.00%
amylase; [28]
  Relative Amylase Enzyme Activity: 107.32%
amylase; [29]
  Relative Amylase Enzyme Activity: 106.35%
amylase; [30]
  Relative Amylase Enzyme Activity: 100.35%
amylase; [31]
  Relative Amylase Enzyme Activity: 106.09%
amylase; [32]
  Relative Amylase Enzyme Activity: 101.79%
amylase; [33]
  Relative Amylase Enzyme Activity: 104.38%
amylase; [34]
  Relative Amylase Enzyme Activity: 101.75%
amylase; [35]
  Relative Amylase Enzyme Activity: 103.89%
amylase; [36]
  Relative Amylase Enzyme Activity: 100.38%
amylase; [37]
  Relative Amylase Enzyme Activity: 107.10%
[1]
  Stability (effects on enzyme activity): Yes
